The target of assay [1] is T1, deoxyHbS oligomers (HbS-rhodamine red / HbS-Cy5) (Homo sapiens, UniProt P68871+P69905, E7V).
T1 construct: purchased Sigma
In words: Fluorescence lifetime (FLT) FRET assay of deoxyHbS oligomerization (LOPAC screen and dose response). The format is biochemical. How it is done:
Development of HTS platform for identification of small molecules that inhibit in vitro HbS nucleation: Sickle hemoglobin (HbS) (sigma) was labeled with either fluorescent donor (rhodamine red) or acceptor (Cy5) dyes (Thermo fisher scientific) via a cysteine thiol group. For labeling, lyophilized HbS (10 mg/ml) was dissolved in PBS (Sigma) and then centrifuged at 13000 g for five minutes at 4° C. to remove the debris. After centrifugation protein sample was incubated with TCEP (0.5-1 mM) for 20 minutes at room temperature to reduce the cysteine side-chain. This protein mixture was incubated with 1.5 mM dye (dissolved in DMSO or water) for two hours in the dark at room temperature or overnight at 4° C. Unreacted free dye was removed by dialysis against PBS. The degree of labeling was calculated by comparing the absorption of the fluorophore conjugated hemoglobin at 280 nm to the absorbance of the dye at its maximum wavelength. The dye concentration was measured by absorbance, using extinction coefficients of 250,000 M −1 cm -1 for Cy5 conjugates and 88000 M −1 cm -1 for Rhodamine Red conjugates.
High-Throughput Screening of LOPAC Library to Identify Compounds That Inhibit HbS Oligomerization Under Deoxy Condition: The LOPAC compounds (Thermo Fisher Scientific) were received in 96-well plates. Assay plates were prepared by transferring 5 nL of the 10 mM compound stocks or DMSO from the source plates to 1536-well black polypropylene plates (Greiner), using an Echo 550 acoustic dispenser (Labcyte). During screening, donor sample (HbS/Rhodamine Red) was mixed with acceptor (HbS/Cy5) at 1:5 ratios. Then protein samples were dispensed (5 μL, 25 μM) by a Multidrop Combi Reagent Dispenser (Thermo Fisher Scientific) into the 1536-well assay plates containing the compounds and incubated at room temperature for two hours. After incubation, protein samples were degassed for 10-15 minutes using vacuum argon degassing method. Lifetime measurements were taken by the fluorescence lifetime plate reader (Fluorescence Innovations, Inc).
Fluorescence Data Acquisition: We tested the functionality of the HbS FRET pair by measuring lifetimes of oxy-and deoxy HbA and HbS using a fluorescence lifetime plate reader (FIG. 3A). Lifetimes are reciprocally related to FRET, so a decrease in lifetime corresponds to an increase in FRET. Donor fluorescence was excited with a 532 nm laser (Teem Photonics SNG-20F-100, Meylan, France), delivering pulses of -0.3 μJ energy at a 20 kHz repetition rate, and emission was filtered with 546 nm long pass and 586/20 nm band pass filters. This filter was selected to exclude acceptor fluorescence, as only the lifetime of the donor fluorescent protein is required to calculate FRET (Equation (1)). The photomultiplier tube (PMT) voltage was adjusted so that the peak signals of the instrument response function (IRF) and FRET biosensor were similar.
High-Throughput Screening Data Analysis: Time resolve-fluorescence waveforms for each well were fitted with single-exponential decays using least-squares minimization global analysis software (Petersen et al., F2014, Rev Sci Instrum 85, 113101). FRET efficiency (E) was determined as the fractional decrease of donor lifetime (T_D ), due to the presence of acceptor fluorophore (T_DA) using equation 1: […]
These drug compounds were dissolved in DMSO to make 20 mM stock solution. Hits were screened at seven different concentrations. Protein samples were dispensed into the 96-well assay plates and incubated with hit compounds at room temperature for two hours. After incubation, protein samples were degassed for 10 minutes using vacuum argon degassing method. Lifetime measurements were taken by the fluorescence lifetime plate reader (Fluorescence Innovations, Inc).

In assay [2] the target is deoxy-HbS oligomers (sickle hemoglobin, HbS) (Homo sapiens, UniProt P68871+P69905, E7V). As to the kind of experiment: Dynamic light scattering (DLS) of deoxy-HbS oligomers at sub-nucleating concentration. Type of assay: biochemical. The following applies: HbS 25 μM, hit compounds 100 μM, two hours at room temperature, degassed with argon; FIG. 4C. The protocol:
(FIG. 4A) Pilot screening with LOPAC library. Compounds that reduced the FRET efficiency below 3SD (black line) were selected for further characterization. […] Fluorescently labeled HbS samples were plated in a 1536 plate and treated separately with DMSO or the three hit compounds, chlormezanone, gabazine, and phosphoramidon disodium, in a dose-dependent manner from 0.1 to 1000 μM for 2 hours at room temperature and then vacuum degassed for 10 minutes, and then donor lifetimes were measured using a fluorescence plate reader. […] HbS samples (25 μM) were incubated separately with hit compounds (100 μM) or DMSO only for two hours at room temperature and degassed with argon for five minutes, and then DLS measurement were taken at room temperature. […] Effect of hit compounds on polymerization of deoxyHbS in high potassium phosphate buffer. Curves represent growth of polymer as a function of time in the presence or absence of drug.

SMILES strings stand for the structures. Entries after “also recorded” stand apart in the source; their conditions may differ.

On to `N[C@@H](Cc1ccccc1)C(=O)O` [phenylalanine], for which the “FRET efficiency of HbS under deoxy conditions” value in assay [1] (known polymerization inhibitors as controls, FIG. 1D) is reported as “decreased the FRET efficiency; also recorded: reduced FRET efficiency”.

On to `CC(C)C[C@H](NP(=O)(O)O[C@@H]1O[C@@H](C)[C@H](O)[C@@H](O)[C@H]1O)C(=O)N[C@@H](Cc1c[nH]c2ccccc12)C(=O)O` [phosphoramidon disodium], for which the “size of deoxyHbS oligomers (DLS effective diameter) relative to control” value in assay [2] was “significantly decreased the oligomer size”. Besides, the “FRET efficiency in dose response” value in assay [1] (0.1 to 1000 μM, 2 hours at room temperature, then degassed, FIG. 4B) is reported as “decreased FRET efficiency in a dose-dependent manner”.

The record behind these values is patent US20230095509A1, “NON-FIBRILLAR HEMOGLOBIN S OLIGOMERS AND METHODS TO IDENTIFY MODULATORS OF HEMOGLOBIN S POLYMERIZATION” (REGENTS OF THE UNIVERSITY OF MINNESOTA, priority 2021, published 2023).
